Reference: patent US20230293447A1, “CLEAVABLE LIPIDIC COMPOUNDS, COMPOSITIONS CONTAINING THEREOF, AND USES THEREOF” (priority 2020, published 2023)

Legend:
hEPO = hEPO expression in mouse serum after intramuscular injection of LNPs containing hEPO mRNA (ELISA); assay type: in vivo, Balb/c ByJ mice; conditions: 1 μg-dose of hEPO mRNA IM in quadriceps, serum 6 hours post-injection; LNPs lipid/DSPC/Chol/DMG-PEG2000 50:10:3.5:1.5, N/P 12
Description: LNPs comprising lipidic compound of formula (III) (or DOG-Cleave) or one of the compounds (VI), (XVII), (XIX), (XXI), (XXII), (XXIV), (XXVII) and (XXVIII), DSPC, Chol and DMG-PEG2000 at a molar ratio of 50:10:3.5:1.5, and hEPO mRNA at a N/P charge ratio=12 (unless otherwise specified in the table), were prepared as described in Example 30 by using the NanoassemblR. An Aqueous/Ethanolic phase volume ratio of 3/1 and at total flow rate of 4 mL/min was used. LNPs were prepared at a concentration of 60 μg of hEPO mRNA/mL in PBS 1×.
Four 8-week-old mice per group were injected on DO via intramuscular route in the quadriceps with 1 μg-dose of hEPO mRNA formulated in LNPs Lip. (IV)/DSPC under a final volume of 50 μL. As negative control, 4 mice received the same volume of PBS (for accelerated stability study and lipid screening) or Citrate Buffer (lipid screening)
Blood samples were collected 6 hours post-injection to measure the expression of hEPO in serum using a specific ELISA assay.
Blood samples were collected 6 hours post-injection by carotid section under deep anesthesia with Imalgene/Rompun (1.6 mg of Ketamine/0.32 mg of Xylazine) in serum-separation tubes (BD Vacutainer #BD367957). Sera were aliquoted and stored at −20° C. until hEPO determination.
hEPO expression in mouse sera was assessed using human Erythropoietin Quantikine IVD ELISA kit (R&D Systems #DEP00). The ELISA was performed following supplier's instructions. Briefly, sera were added in pre-coated plates and incubated for one hour at room temperature under orbital shaking. After sera removal, Erythropoietin conjugate was added for one hour at room temperature under orbital shaking. Plates were washed and Substrate solution was added for 20-25 minutes at room temperature before stopping the reaction with Stop solution. Absorbance at 450 nm with 650 nm signal subtraction was determined in a microplate reader. Data were analyzed using SoftmaxPro software and expressed in log 10 of the concentration of hEPO measured in mouse sera in pg/mL.

[1] = UHPLC-CAD-MS analysis of cleavage of DOG-Cleave during LNP formulation process; assay type: physicochemical; conditions: from extracted ion chromatograms, same response factor assumed

Compound | EPO secretion IM (hEPO) | further results
CCCCCCCC/C=C\CCCCCCCCOCC(COCCOCCOCCOCCOC(=O)CNCCOC(=O)CNCCOC)OCCCCCCCC/C=C\CCCCCCCC.O=C(O)C(F)(F)F.O=C(O)C(F)(F)F (centres unmarked) [Compound (III), 2-[[2-[2-[2-[2-[2-[2,3-bis[(Z)-octadec-9-enoxy]propoxy]ethoxy]ethoxy]ethoxy]ethoxy]-2-oxo-ethyl]amino]ethyl 2-(2-methoxyethylamino)acetate;2,2,2-trifluoroacetic Acid] | 1.5 Log10 pg/ml | Relative amount in DOG-Cleave EtOH solution [1]: 75%; Relative amount in Final LNP [1]: 25%; Relative amount in LNP after 1st dialysis [1]: 59%
CCCCCCCC/C=C\CCCCCCCCOCC(COCCOCCOCCOCCOC(=O)CNCCOC(=O)[C@@H](N)COC)OCCCCCCCC/C=C\CCCCCCCC.Cl (stereo partly drawn) [Compound (VI), 2-[[2-[2-[2-[2-[2-[2,3-bis[(Z)-octadec-9-enoxy]propoxy]ethoxy]ethoxy]ethoxy]ethoxy]-2-oxoethyl]amino]ethyl (2S)-2-amino-3-methoxy-propanoate; Hydrochloride] | 2.1 Log10 pg/ml | –
CCCCCCCCC=CCCCCCCCCOCC(OCCCCCCCCC=CCCCCCCCC)C(=O)N(CCCCCCCC)CCOCCOCCOCCOCCOC(=O)CNCCOC(=O)CNCCOC.O=C(O)C(F)(F)F (centres unmarked) [Compound (XIX), 2-[[2-[2-[2-[2-[2-[2-[2,3-bis[(Z)-octadec-9-enoxy]propanoyl-octylamino]ethoxy]ethoxy]ethoxy]ethoxy]ethoxy]-2-oxo-ethyl]amino]ethyl 2-(2-methoxyethylamino)acetate;2,2,2-trifluoroacetic Acid] | 2.4 Log10 pg/ml | –
CCCCCCC(CCCC)C(=O)OCCCCCCOCC(COCCOCCOCCOCCOC(=O)CNCCOC(=O)CNCCOC)OCCCCCCOC(=O)C(CCCC)CCCCCC (centres unmarked) [Compound (XXII), 6-[2-[6-(2-butyloctanoyloxy)hexoxy]-3-[2-[2-[2-[2-[2-[2-[2-(2-methoxyethylamino)acetyl]oxyethylamino]acetyl]oxyethoxy]ethoxy]ethoxy]ethoxy]propoxy]hexyl 2-butyloctanoate;2,2,2-trifluoroacetic Acid] | 2.5 Log10 pg/ml | –
CCCCCCCCC=CCCCCCCCCOCC(OCCCCCCCCC=CCCCCCCCC)C(CCCCCCCCCCCC)OC(=O)NCCOCCOCCOCCOC(=O)CNCCOC(=O)CNCCOC.O=C(O)C(F)(F)F (centres unmarked) [Compound (XXIV), 2-[[2-[2-[2-[2-[2-[1-[1,2-bis[(Z)-octadec-9-enoxy]ethyl]tridecoxycarbonylamino]ethoxy]ethoxy]ethoxy]ethoxy]-2-oxo-ethyl]amino]ethyl 2-(2-methoxyethylamino)acetate;2,2,2-trifluoroacetic Acid] | 1.9 Log10 pg/ml | –
CCCCCCCCCOC(=O)CCCCCCCN(CCCCCCCC(=O)OC(CCCCCCCC)CCCCCCCC)C(=O)CCOCCOCCOCCOC(=O)CNCCOC(=O)CNCCOC [Compound (XXVII), nonyl 8-[3-[2-[2-[2-[2-[2-[2-(2-methoxyethylamino)acetyl]oxyethylamino]acetyl]oxyethoxy]ethoxy]ethoxy]propanoyl-[8-(1-octylnonoxy)-8-oxo-octyl]amino]octanoate;2,2,2-trifluoroacetic Acid] | 1.9 Log10 pg/ml | –
CCCCCCCCC(CCCCCC)C(=O)OCCCCCCOCC(OCCCCCCOC(=O)C(CCCCCC)CCCCCCCC)C(=O)N(CCCCCCCC)CCOCCOCCOCCOCCOC(=O)CNCCOC(=O)CNCCOC (centres unmarked) [Compound (XXVIII), 6-[2-[6-(2-hexyldecanoyloxy)hexoxy]-3-[2-[2-[2-[2-[2-[2-[2-[2-(2-methoxyethylamino)acetyl]oxyethylamino]acetyl]oxyethoxy]ethoxy]ethoxy]ethoxy]ethyl-octyl-amino]-3-oxopropoxy]hexyl 2-hexyldecanoate;2,2,2-trifluoroacetic acid] | 2.3 Log10 pg/ml | –
[(Z)-non-2-enyl] 8-[3-[2-[2-[2-[2-[2-[2-[2-(2-methoxyethylamino)acetyl]oxyethylamino]acetyl]oxyethoxy]ethoxy]ethoxy]ethoxy]-2-[8-[(Z)-non-2-enoxy]-8-oxo-octoxy]propoxy]octanoate;2,2,2-trifluoroacetic Acid [Compound (XVII)] | 2.4 Log10 pg/ml | –
